In patent US20060159631A1, “Compositions and methods for preventing dental stain” (SMITHKLINE BEECHAM CORPORATION, priority 2003, published 2006):

Test: Coffee stain challenge on saliva pellicle-treated HAP discs, rated by visual inspection
Conditions: subjective index of 1 to 10 (1 representing greatest stain), coffee 24 hours, None = 2.0
Method: In a series of experiments, HAP discs were first treated with saliva to generate an artificial pellicle. […] Following a second rinse, the active-treated discs were immersed in a concentrated solution of coffee for a period of 24 hours in order to simulate a dietary stain challenge. After rinsing to remove excess coffee solution, the discs were dried and rated for stain by visual inspection. Using a subjective index of 1 to 10 (1 representing greatest stain), stain intensity is tabluated below.

Row | Compound | Stain Intensity (10% (w/w) active) | Stain Intensity (2% (w/w) active) | Stain Intensity (5% (w/w) active)
1 | O=P(O)(O)OP(=O)(O)OP(=O)(O)O [STP] | 5.5 |  | 
2 | pegulated lauryl phosphate ether [DLP-10] |  | 3.5 | 4.0
